The target of one assay is Coagulation factor XI (Homo sapiens, UniProt P03951). Put plainly: Factor XIa Inhibition Assay Utilizing a Fluorophore-Quencher Pair Peptide Substrate. The source says: A fluorescence intensity (FLINT) based assay was used to monitor inhibition of Factor XIa. The peptide substrate, 5Fam-[…]-K5Tamra (purchased from New England Peptide) was chosen based on the FXI sequence. Conversion of zymogen FXI to its activated form, FXIa, occurs by proteolytic cleavage by […] at two sites, Arg146 and Arg180. The custom peptide used in this assay was based on the Arg146 cleavage site of FXI. The peptide substrate was designed with a fluorophore-quencher pair, where the fluorescence is quenched until FXIa cleaves the 8-mer peptide after the Arg residue. […] The Factor XIa FLINT assay was used with the following 5Fam-[…]-K5Tamra assay buffer: 50 mM Tris, pH 7.5, 100 mM NaCl, 5 mM CaCl2), 0.1 mg/mL BSA, 0.03% CHAPS. Assay buffer was prepared by mixing all ingredients fresh. 5Fam-[…]-K5Tamra peptide substrate was first prepared at 10 mM in 100% DMSO, then diluted to 3 mM in 100% DMSO.
Chain of Coagulation factor XI (P03951 19-387 limits assumed): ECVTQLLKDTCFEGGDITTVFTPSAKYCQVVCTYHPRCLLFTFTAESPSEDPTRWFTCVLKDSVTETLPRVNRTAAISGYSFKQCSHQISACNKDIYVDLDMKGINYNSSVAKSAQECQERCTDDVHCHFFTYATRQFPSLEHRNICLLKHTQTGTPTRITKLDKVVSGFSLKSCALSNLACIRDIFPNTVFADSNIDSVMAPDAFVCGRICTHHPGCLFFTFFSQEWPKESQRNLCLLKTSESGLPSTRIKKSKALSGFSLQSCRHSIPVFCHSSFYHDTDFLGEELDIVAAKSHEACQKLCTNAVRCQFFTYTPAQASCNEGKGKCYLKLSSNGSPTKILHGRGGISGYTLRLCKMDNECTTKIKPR
Chain of Coagulation factor XI (P03951 388-625 limits assumed): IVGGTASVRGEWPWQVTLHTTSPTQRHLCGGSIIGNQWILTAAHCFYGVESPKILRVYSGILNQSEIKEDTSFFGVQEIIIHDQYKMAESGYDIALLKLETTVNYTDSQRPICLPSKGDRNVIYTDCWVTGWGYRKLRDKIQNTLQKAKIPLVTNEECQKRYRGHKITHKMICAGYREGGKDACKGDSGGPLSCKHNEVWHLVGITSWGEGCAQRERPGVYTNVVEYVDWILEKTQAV

The next assay has as its target Plasma kallikrein (Homo sapiens, UniProt P03952). Put plainly: Kallikrein Inhibition Assay Utilizing a Quenched AMC Peptide Substrate. The protocol:
A fluorescence intensity (FLINT) based assay was used to monitor inhibition of human plasma kallikrein. The peptide substrate, Z-Gly-Pro-Arg-AMC (Purchased from Bachem; Catalog #I-1150) was chosen based on its relatively low KM for kallikrein which enables running the assay at lower substrate concentrations to control background fluorescence. The kinetic parameters for this substrate were determined by fitting titration data to the Michaelis-Menten equation yielding a KM=40 μM, kcat=0.76 s−1, and kcat/KM=18932 M−1s−1. The Kallikrein FLINT assay was used with the following Z-Gly-Pro-Arg-AMC assay buffer: 50 mM Tris, pH 7.5, 100 mM NaCl, 5 mM CaCl2), 0.1 mg/mL BSA, 0.03% CHAPS. Assay buffer was prepared by mixing all ingredients fresh. 2×Z-Gly-Pro-Arg-AMC peptide substrate was prepared by diluting 10 mM stock into 1×assay buffer for a 100 μM working concentration (50 μM final concentration). The 2×kallikrein stock solution was prepared by diluting 14.76 μM stock in 1×assay buffer for a 4 nM working stock solution (2 nM final concentration).

The structures appear in SMILES notation.

Chain of Plasma kallikrein (P03952 20-390 limits assumed): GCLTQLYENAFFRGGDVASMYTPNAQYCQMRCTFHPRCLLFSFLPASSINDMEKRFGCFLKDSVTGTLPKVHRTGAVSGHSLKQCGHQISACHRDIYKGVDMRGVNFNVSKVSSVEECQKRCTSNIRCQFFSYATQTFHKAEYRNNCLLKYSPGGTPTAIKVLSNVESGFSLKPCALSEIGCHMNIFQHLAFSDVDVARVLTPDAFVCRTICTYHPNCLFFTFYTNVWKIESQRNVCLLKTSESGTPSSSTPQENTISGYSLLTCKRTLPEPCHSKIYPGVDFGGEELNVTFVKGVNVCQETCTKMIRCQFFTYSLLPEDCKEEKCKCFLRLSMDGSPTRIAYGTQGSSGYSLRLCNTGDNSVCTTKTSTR
Chain of Plasma kallikrein (P03952 391-638 limits assumed): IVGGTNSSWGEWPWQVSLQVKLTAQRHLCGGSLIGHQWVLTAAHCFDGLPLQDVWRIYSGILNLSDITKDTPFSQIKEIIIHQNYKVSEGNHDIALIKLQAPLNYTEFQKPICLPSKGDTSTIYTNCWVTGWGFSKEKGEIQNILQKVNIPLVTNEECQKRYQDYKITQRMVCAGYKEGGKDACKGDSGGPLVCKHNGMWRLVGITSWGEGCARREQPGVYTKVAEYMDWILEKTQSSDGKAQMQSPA

In the case of `NC(=O)c1ccc(-c2cnc([C@@H]3CC[C@@H]4CC(c5c(-n6cnnn6)ccc(Cl)c5F)=CC(=O)N43)[nH]2)cc1F` [US20230295157, Example 197], the IC50 came to 4.1 nM at Coagulation factor XI and 6 nM against Plasma kallikrein.
The matching figures for `C[C@H](CO)Oc1nccc(-c2cnc([C@@H]3CC[C@H]4CC(c5c(-n6cnnn6)ccc(Cl)c5F)=CC(=O)N43)[nH]2)c1F` (relative stereo) [US20230295157, Example 169]: 42.3 nM and 40.1 nM.
The matching figures for `O=C1C=C(c2c(-n3cnnn3)ccc(Cl)c2F)C[C@H]2CC[C@@H](c3nc(-c4csc(CO)n4)c[nH]3)N12` [US20230295157, Example 22]: 47.8 nM and 103 nM.
